Test: Chemical stability of cabergoline and its tablets
Format: physicochemical
Conditions: normal wet granulation techniques

For `C=CCN1C[C@H](C(=O)N(CCCN(C)C)C(=O)NCC)C[C@@H]2c3cccc4[nH]cc(c34)C[C@H]21` [cabergoline, 1((6-allylergolin-8.beta,-yl)-carbony.)-1-(3-(dimethylamino)propyl)-3ethylurea], the “degradation of the active ingredient” value was “did degrade”.
